Measured values reported in PMC12516379, “Rotamer-Controlled Self-Immolative Linkers Enable Tunable Release of Neurosteroid Oxime Prodrugs” (ACS Medicinal Chemistry Letters, 2025).

How the values were obtained:
[1] = Aqueous solubility by visual inspection in acetate buffer (pH 5); conditions: sodium acetate buffer
Experimental: For the solubility assessment, acetate buffer (pH 5) was selected as the media of choice to ensure prodrug stability during analysis.
High aqueous solubility was determined by visual inspection of 5 mg solid material in 0.5 mL
sodium acetate buffer solution. This media was selected to ensure stability of prodrugs during
dissolution in 50 mg/mL aqueous media.

[2] = Stability in PBS at room temperature via HPLC (UV); format: physicochemical; conditions: phosphate-buffered saline (DPBS)
Experimental: (§1) Stability studies were conducted in PBS and acetate buffer utilizing high performance liquid chromatography for potential drug storage considerations. […]
(§2) All experiments were performed in duplicate and results are presented as the average of two experimental replicates.
(§3) 1.1 Aqueous Stability in PBS and Acetate Buffer via HPLC
(§4) Material and Instrumentation
(§5) HPLC grade acetonitrile (MeCN) […] HPLC grade water (H 2O), and formic acid (FA) were purchased from Fisher Scientific.
(§6) Puradisc 4 mm PTFE (0.45 μm) syringe filters from Cytiva. Gibco ® Dulbecco’s phosphate-buffered saline (DPBS 1X, no calcium, no magnesium, pH = 7.03) and acetate buffer (pH = 5.0, 10 mM) were purchased directly from Thermo Fisher Scientific and Cytiva, respectively.
(§7) Aqueous stability experiments were performed on an Agilent 1100 HPLC equipped with an Agilent G1315B diode array detector, an Agilent G1316A heated column compartment, and a Zorbax Eclipse XDB-C18 (4.6 x 150 mm, 5 μm) column.
(§8) Procedure for Aqueous Stability Experiments
(§9) Each sample was first weighed out in two separate 2.0 mL vials using an analytical balance.
(§10) Unless otherwise specified, the test compounds were then dissolved in the aqueous media (PBS or acetate buffer) at a standard concentration of 1 mg/mL. All mixtures were subsequently sonicated for approximately 30 sec. […]
(§11) min), precipitates observed in sample solutions were filtered with a PTFE syringe filter prior to analysis. Immediately after sample preparation, injection by the HPLC autosampler was performed, which was recorded as the initial time point (t = 0 min). Solutions were then kept in the autosampler at RT and reinjected at designated intervals without additional filtration or sample modification. Remaining prodrug was defined by the area under the curve (AUC) at 254 nm. Aqueous stability was ascertained by calculating the percentage of the parent compound remaining after each time point. Linear regression of the time (x-axis) vs. ln(%remaining) (y-axis) plot afforded the rate constant k (slope = -k). Pseudo first-order half-lives were then calculated by the following equation: t1/2 = 0.693/k.

[3] = PBS stability assay at 37 °C via LC-MS/MS; format: physicochemical; conditions: for half-life at 3 µM / remaining at 2 h, 3 µM: phosphate-buffered saline (DPBS); for half-life at 3 µM: pH 7.03, PBS; for PBS, 37 °C %rem. at 2h (Table S23) / half-life at 3 µM / remaining at 2 h, 3 µM: 37 °C; for remaining at 2 h, 3 µM: pH 7.03, read-out: % Remaining @ 2h, PBS, 37 °C (Tables S25, S26)
Experimental: To address this, prodrug stability was further evaluated in human plasma at 37 °C using liquid chromatography–tandem mass spectrometry (LC-MS/MS). For direct comparison, a parallel screen was conducted in PBS under identical conditions (Table ). To prevent premature degradation prior to LC-MS/MS analysis, acetonitrile containing formic acid was used as a quenching solution to acidify and stabilize the prodrugs in vials. […] This limitation in detection, along with the need for a more uniform and broadly applicable assessment across all compounds, prompted us to monitor the formation of the parent oxime as an alternative readout.
Stability experiments in human plasma and PBS were performed via liquid chromatography-tandem mass spectrometry (LC-MS/MS) to determine and compare rate of cleavage of progesterone prodrugs as well as selected allopregnanolone prodrugs (3 µM) when incubated at 37 °C. All experiments were performed in duplicate and results are presented as the average of two experimental replicates.

[4] = Stability in acetate buffer pH 5.0 at room temperature via HPLC (UV); format: physicochemical
Experimental: as §1, §2, §3, §4, §5, §6, §7, §8, §9, §10, §11

[5] = Plasma stability assay at 37 °C via LC-MS/MS, human plasma; format: in vitro ADME; conditions: for half-life at 3 µM: human, plasma;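 on all read-outs here: prodrugs at 3 µM incubated in human plasma at 37 °C, intact prodrug quantified by LC-MS/MS over time, values are means of duplicate runs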
[6] = pH 5, aqueous buffer, thermodynamic from solid
[7] = pH 7.03, DPBS pH 7.03, RT, 1 mg/mL, HPLC 254 nm, read-out: t1/2 in PBS buffer at RT (Tables S1-S4) (converted)
[8] = pH 7.03, PBS, rt, read-out: t½: PBS, rt (Table S23) (converted)
[9] = 3 µM, LC-MS/MS, read-out: t1/2 in PBS at 37 °C (Tables S14-S17) (converted)
[10] = read-out: PBS, 37 °C t½ (Table S23) (converted)
[11] = read-out: t1/2 (h) PBS, 37 °C (Tables S25, S26) (converted)
[12] = pH 5, acetate buffer pH 5.0, RT, 1 mg/mL, HPLC 254 nm, read-out: t1/2 in acetate buffer at RT (Tables S5-S8) (converted)
[13] = pH 5, acetate buffer pH 5.0, rt, read-out: t½: pH 5.0, rt (Table S23) (converted)
[14] = 3 µM, LC-MS/MS, read-out: t1/2 in human plasma at 37 °C (Tables S10-S13, S18) (converted)
[15] = read-out: Plasma, 37 °C t½ (Table S23) (converted)
[16] = pH 7.03, PBS, rt, HPLC (UV), read-out: Half-life (t½) PBS rt (converted)
[17] = LC-MS/MS, read-out: Half-life (t½) PBS 37°C (converted)
[18] = pH 5, acetate buffer pH 5.0, rt, HPLC (UV), read-out: Half-life (t½) pH 5.0 rt (converted)
[19] = LC-MS/MS, read-out: Half-life (t½) Plasma 37°C (converted)

## CNCCN(CC(C)C)C(=O)O/N=C(\C)[C@H]1CC[C@H]2[C@@H]3CCC4=CC(=O)CC[C@]4(C)[C@H]3CC[C@]12C.O=C(O)C(F)(F)F [20f]
[1]; [6]
  solubility: > 10000 µg/mL
[2]; [7]
  half-life at 1 mg/mL: 50.7 ± 5.11 h
[2]; [8]
  half-life at 1 mg/mL: > 24 h
[3]; PBS
  PBS, 37 °C %rem. at 2h (Table S23): 55%
  remaining at 2 h, 3 µM: 55%
[3]; [9]
  half-life at 3 µM: 5.07 h
[3]; [10]
  half-life at 3 µM: 5.07 h
[3]; [11]
  half-life at 3 µM: 5.07 h
[4]; [12]
  half-life at 1 mg/mL: > 168 h
[4]; [13]
  half-life at 1 mg/mL: > 168 h
[5]
  Plasma, 37 °C %rem. at 2h (Table S23): 95%
[5]; [14]
  half-life at 3 µM: 4.78 h
[5]; [15]
  half-life at 3 µM: 4.78 h

## CNCCN(CCCN1CCOCC1)C(=O)O/N=C(\C)[C@H]1CC[C@H]2[C@@H]3CCC4=CC(=O)CC[C@]4(C)[C@H]3CC[C@]12C.O=C(O)C(F)(F)F [20i]
[1]; [6]
  solubility: > 10000 µg/mL
[2]; [7]
  half-life at 1 mg/mL: 31.2 ± 1.48 h
[2]; [8]
  half-life at 1 mg/mL: 31.2 h
[3]; PBS
  PBS, 37 °C %rem. at 2h (Table S23): 77%
  remaining at 2 h, 3 µM: 77%
[3]; [9]
  half-life at 3 µM: 5.45 h
[3]; [10]
  half-life at 3 µM: 5.45 h
[3]; [11]
  half-life at 3 µM: 5.45 h
[4]; [12]
  half-life at 1 mg/mL: > 168 h
[4]; [13]
  half-life at 1 mg/mL: > 168 h
[5]
  Plasma, 37 °C %rem. at 2h (Table S23): 57%
[5]; [14]
  half-life at 3 µM: 2.09 h
[5]; [15]
  half-life at 3 µM: 2.09 h

## CNCCN(CCn1ccnc1)C(=O)O/N=C(\C)[C@H]1CC[C@H]2[C@@H]3CCC4=CC(=O)CC[C@]4(C)[C@H]3CC[C@]12C [20k]
[1]; [6]
  solubility: > 10000 µg/mL
[2]; [7]
  half-life at 1 mg/mL: 47 ± 2.84 h
[2]; [8]
  half-life at 1 mg/mL: 47 h
[3]; PBS
  PBS, 37 °C %rem. at 2h (Table S23): 70%
  remaining at 2 h, 3 µM: 70%
[3]; [9]
  half-life at 3 µM: 5.99 h
[3]; [10]
  half-life at 3 µM: 5.99 h
[3]; [11]
  half-life at 3 µM: 5.99 h
[4]; [12]
  half-life at 1 mg/mL: > 168 h
[4]; [13]
  half-life at 1 mg/mL: > 168 h
[5]
  Plasma, 37 °C %rem. at 2h (Table S23): 68%
[5]; [14]
  half-life at 3 µM: 3.16 h
[5]; [15]
  half-life at 3 µM: 3.16 h

## C/C(=N\OC(=O)N(C)C[C@H]1CCCN1)[C@H]1CC[C@H]2[C@@H]3CCC4=CC(=O)CC[C@]4(C)[C@H]3CC[C@]12C.O=C(O)C(F)(F)F [20m]
[1]; [6]
  solubility: > 10000 µg/mL
[2]; [7]
  half-life at 1 mg/mL: 6.15 ± 0.02 h
[2]; [8]
  half-life at 1 mg/mL: 6.15 h
[3]; PBS
  PBS, 37 °C %rem. at 2h (Table S23): 11%
[3]; [9]
  half-life at 3 µM: 0.8 h
[3]; [10]
  half-life at 3 µM: 0.8 h
[4]; [12]
  half-life at 1 mg/mL: > 168 h
[4]; [13]
  half-life at 1 mg/mL: > 168 h
[5]
  Plasma, 37 °C %rem. at 2h (Table S23): 2%
[5]; [14]
  half-life at 3 µM: 0.35 h
[5]; [15]
  half-life at 3 µM: 0.35 h

## C/C(=N\OC(=O)N(C)C[C@@H]1CCN1)[C@H]1CC[C@H]2[C@@H]3CCC4=CC(=O)CC[C@]4(C)[C@H]3CC[C@]12C [20o]
[1]; [6]
  solubility: > 10000 µg/mL
[2]; [7]
  half-life at 1 mg/mL: 6.3 ± 0.09 h
[2]; [16]
  half-life at 1 mg/mL: 6.3 h
[2]; [8]
  half-life at 1 mg/mL: 6.3 h
[3]; PBS
  PBS, 37 °C %rem. at 2h (Table S23): 14%
[3]; [9]
  half-life at 3 µM: 0.9 h
[3]; [17]
  half-life at 3 µM: 0.9 h
[3]; [10]
  half-life at 3 µM: 0.9 h
[4]; [12]
  half-life at 1 mg/mL: > 168 h
[4]; [18]
  half-life at 1 mg/mL: > 168 h
[4]; [13]
  half-life at 1 mg/mL: > 168 h
[5]
  Plasma, 37 °C %rem. at 2h (Table S23): 1%
[5]; [14]
  half-life at 3 µM: 0.29 h
[5]; [19]
  half-life at 3 µM: 0.29 h
[5]; [15]
  half-life at 3 µM: 0.29 h

## C/C(=N\OC(=O)N(C)C[C@@H]1CC2(CC2)CN1)[C@H]1CC[C@H]2[C@@H]3CCC4=CC(=O)CC[C@]4(C)[C@H]3CC[C@]12C [20q]
[1]; [6]
  solubility: > 10000 µg/mL
[2]; [7]
  half-life at 1 mg/mL: 4.35 h
[2]; [16]
  half-life at 1 mg/mL: 4.35 h
[2]; [8]
  half-life at 1 mg/mL: 4.35 h
[3]; PBS
  PBS, 37 °C %rem. at 2h (Table S23): 5%
[3]; [9]
  half-life at 3 µM: 0.7 h
[3]; [17]
  half-life at 3 µM: 0.7 h
[3]; [10]
  half-life at 3 µM: 0.7 h
[4]; [12]
  half-life at 1 mg/mL: > 168 h
[4]; [18]
  half-life at 1 mg/mL: > 168 h
[4]; [13]
  half-life at 1 mg/mL: > 168 h
[5]
  Plasma, 37 °C %rem. at 2h (Table S23): 15%
[5]; [14]
  half-life at 3 µM: 0.65 h
[5]; [19]
  half-life at 3 µM: 0.64 h
[5]; [15]
  half-life at 3 µM: 0.65 h

## C/C(=N\OC(=O)N(C)C[C@@H]1C[C@H](N(C)C)CN1)[C@H]1CC[C@H]2[C@@H]3CCC4=CC(=O)CC[C@]4(C)[C@H]3CC[C@]12C [20u]
[1]; [6]
  solubility: > 10000 µg/mL
[2]; [7]
  half-life at 1 mg/mL: 7.53 ± 1.3 h
[2]; [16]
  half-life at 1 mg/mL: 7.53 h
[2]; [8]
  half-life at 1 mg/mL: 7.53 h
[3]; [9]
  half-life at 3 µM: 1.08 h
[3]; [17]
  half-life at 3 µM: 1.08 h
[3]; [10]
  half-life at 3 µM: 1.08 h
[4]; [12]
  half-life at 1 mg/mL: 72 h
[4]; [18]
  half-life at 1 mg/mL: 72 h
[4]; [13]
  half-life at 1 mg/mL: 72 h
[5]
  Plasma, 37 °C %rem. at 2h (Table S23): 17%
[5]; [14]
  half-life at 3 µM: 0.74 h
[5]; [19]
  half-life at 3 µM: 0.73 h
[5]; [15]
  half-life at 3 µM: 0.74 h

## C/C(=N\OC(=O)N(CCN(C)C)CCN(C)C)[C@H]1CC[C@H]2[C@@H]3CCC4=CC(=O)CC[C@]4(C)[C@H]3CC[C@]12C [20y]
[1]; pH 5
  solubility: < 10000 µg/mL
[2]; [7]
  half-life at 1 mg/mL: 0.017 ± 0.002 h
[2]; [8]
  half-life at 1 mg/mL: 0.02 h
[3]; PBS
  Prodrug stability / self-immolation in buffer, in words: hydrolytic instability
  PBS, 37 °C %rem. at 2h (Table S23): 35%
[3]; [9]
  half-life at 3 µM: 1.87 h
[3]; [10]
  half-life at 3 µM: 1.87 h
[4]; pH 5, acetate buffer pH 5.0, RT, HPLC 254 nm, read-out: t1/2 in acetate buffer at RT
  half-life at 1 mg/mL: 0.1322 ± 0.00117 h
[5]
  Plasma, 37 °C %rem. at 2h (Table S23): 84%
[5]; [14]
  half-life at 3 µM: 8.88 h
[5]; [15]
  half-life at 3 µM: 8.88 h

## C/C(=N\OC(=O)N(CCO)CCNCCO)[C@H]1CC[C@H]2[C@@H]3CCC4=CC(=O)CC[C@]4(C)[C@H]3CC[C@]12C.Cl [20z]
[1]; [6]
  solubility: > 10000 µg/mL
[2]; [7]
  half-life at 1 mg/mL: 28.8 ± 3.16 h
[2]; [8]
  half-life at 1 mg/mL: 28.8 h
[3]; PBS
  PBS, 37 °C %rem. at 2h (Table S23): 78%
[3]; [9]
  half-life at 3 µM: 6.27 h
[3]; [10]
  half-life at 3 µM: 6.27 h
[4]; [12]
  half-life at 1 mg/mL: > 168 h
[4]; [13]
  half-life at 1 mg/mL: > 168 h
[5]
  Plasma, 37 °C %rem. at 2h (Table S23): 71%
[5]; [14]
  half-life at 3 µM: 2.3 h
[5]; [15]
  half-life at 3 µM: 2.3 h
